One test relates to Ba/F3-TEL-TYK2 cells. As to the kind of experiment: Proliferation of Ba/F3-TEL-TYK2 cells (CellTiter-Glo). Particulars: 72 hours, read-out: Half maximal inhibitory concentration IC50 for cells Ba/F3-TEL-TYK2. The test is classed as cell-based. From the text:
Adenosine triphosphate (ATP) serves as a universal energy carrier in various life processes, representing the smallest unit of energy storage and transfer. The CellTiter-Glo™ Luminescent Cell Viability Assay Kit utilizes luciferase as a detection agent. During the luminescent process, luciferase requires the participation of ATP. By adding CellTiter-Glo™ reagent to the cell culture medium and measuring the luminescence, the light signal was directly proportional to the amount of ATP in the system, and ATP was positively correlated with the number of viable cells. Therefore, cell proliferation can be detected by measuring ATP content using the CellTiter-Glo kit. In this test, the cell lines used were Ba/F3-FL-TYK2-E957D and Ba/F3-TEL-TYK2. Ba/F3-FL-TYK2-E957D cells can stably express the exogenously introduced human TYK2-E957D gene, and the TYK2-E957D gene sequence contains both JH1 and JH2 domains. On the other hand, Ba/F3-TEL-TYK2 cells can stably express the exogenously introduced human TEL-TYK2 gene, and the TEL-TYK2 gene sequence contains only the JH1 domain of TYK2.
The cell lines were cultured in an incubator at 37° C. with 5% CO2. Regular passaging was performed, and cells in the logarithmic growth phase were selected for plating.
• a) The test compounds were prepared into a 10 mM solution with DMSO, and then diluted to 0.3 or 1 mM with DMSO. • b) Preparation of 1000× compound storage plate (tube): The compounds were 3-fold serially diluted from the highest concentration to the lowest concentration, creating 9 different concentrations. • c) Preparation of 20× compound working solution: 49 μL of cell culture medium was added to a flat-bottomed 96-well transparent drug plate. From the 1000× compound storage plate, 1 μL of the compound was pipetted into the cell culture medium in the 96-well transparent drug plate. In the solvent control, 1 μL of DMSO was added. After the compound or DMSO was added, the mixture was homogenized using a multi-channel pipette.
• a) Cells were stained with trypan blue and viable cells were counted to ensure a cell viability of 90% or more. • b) 95 μL of cell suspension (2000 cells/well) was added to each well of the compound assay cell plate, and cell-free culture medium containing 0.1% DMSO was added to the Min control wells. • c) Administration in the compound assay cell plate: 5 μL of 20× compound working solution was added to the cell culture plate. 5 μL of DMSO-cell culture medium mixture was added to the Max control wells. The final concentration of DMSO was 0.1%. • d) The culture plate was then incubated in an incubator at 37° C. with 5% CO2 for 72 hours.
The following steps were conducted in accordance with the instructions of the Promega CellTiter-Glo Luminescent Cell Viability Assay Kit (Promega-G7573). • a) CellTiter-Glo buffer was thawed and brought to room temperature. • b) CellTiter-Glo substrate was also brought to room temperature. • c) CellTiter-Glo buffer was added to a bottle of CellTiter-Glo substrate to dissolve the substrate, thereby preparing CellTiter-Glo working solution. • d) The mixture was slowly vortexed and shaken to be fully dissolved. • e) The cell culture plate was removed and allowed to equilibrate to room temperature for 10 minutes. • f) 50 μL (equal to half the volume of cell culture medium in each well) of CellTiter-Glo working solution was added to each well. • g) The culture plate was shaken on an orbital shaker for 2 minutes to induce cell lysis. • h) The plate was then left at room temperature for 10 minutes to stabilize the luminescent signal. • i) The luminescent signal was detected using a SpectraMax Paradigm plate reader.
Data analysis was conducted using GraphPad Prism 5.0 software. Nonlinear S-curve regression was employed to fit the data and generate dose-response curves. From these curves, the IC50 values were calculated.
For orientation: Cellular ATP, detected with luciferase, serves as a proxy for viable cell number.

Test [1] relates to TYK2 signaling pathway (IFN-α/pSTAT1). As to the kind of experiment: IFN-α-stimulated pSTAT1 in human PBMC (flow cytometry). The class given is cell-based. Particulars: CD4-positive cells. As for the experimental part: The purpose of this experiment was to detect the inhibitory effect of the compounds on cytokine-activated JAK-STAT signaling pathways in human peripheral blood mononuclear cells (PBMC).
• a) PBMCs frozen in liquid nitrogen were thawed in a 37° C. water bath, and culture medium was added. The mixture was then centrifuged at 320 g for 3 minutes. • b) Cells were resuspended in culture medium, counted, and the cell concentration was adjusted to 5×10^5 cells/mL with culture medium. Subsequently, the cell suspension was inoculated into […] 96-well round-bottom plates, with 200 μL per well. The plates were incubated at 37° C. with 5% CO2 for 90 minutes. • c) Different concentrations of the test compound (starting at 2 μM, 5-fold serial dilution, a total of 8 concentrations) were added, followed by incubation at 37° C. with 5% CO2 for 30 minutes. • d) IL-6 (final concentration at 20 ng/mL) was added to the first round-bottom plate and incubated at 37° C. with 5% CO2 for 15 minutes. • e) IFNα (final concentration at 1000 U/mL) was added to the second round-bottom plate and incubated at 37° C. with 5% CO2 for 15 minutes. • f) IL-2 (final concentration at 4 ng/mL) was added to the third round-bottom plate and incubated at 37° C. with 5% CO2 for 15 minutes. • g) GM-CSF (final concentration at […]) was added to the fourth round-bottom plate and incubated at 37° C. with 5% CO2 for 15 minutes. • h) Cells were centrifuged at 320 g for 3 minutes, and each well was washed once with 200 μL of staining solution. • i) 50 μL of staining solution containing human CD33 antibody was added to each well of the GM-CSF-stimulated culture plate, and 50 μL of staining solution containing CD4 antibody was added to the remaining three culture plates. The staining was performed at 4° C. for 30 minutes. The cells were washed twice with the staining solution. • j) 100 μL of fixation buffer was added to each well, and the cells were fixed at 4° C. for 15 minutes. The cells were washed once with the staining solution. • k) 100 μL of permeabilization buffer was added to each well, and the cells were permeabilized at 4° C. for 20 minutes. The cells were washed twice with the staining solution. • l) 50 μL of staining solution containing human pSTAT1 antibody was added to each well of the IL-6 and IFN-α-stimulated culture plates, and 50 μL of staining solution containing human pSTAT5 antibody was added to each well of the IL-2 and GM-CSF-stimulated culture plates. The staining was performed at room temperature for 15 minutes. The cells were washed twice with the staining solution. • m) The cells were resuspended in 150 μL of staining solution. • n) The fluorescence intensity of pSTAT1 (stimulated by IL-6 and IFN-α) or pSTAT5 (stimulated by IL-2) in CD4-positive cells was detected using flow cytometer. The fluorescence intensity of pSTAT5 (stimulated by GM-CSF) in CD33-positive cells was also detected.
Data analysis was performed using Flowjo software to determine the IC50 of the compounds.
Background: Flow cytometry measures light scatter and fluorescence of single cells or particles in a stream.

pIC50: −log10 of the molar value.

Drawing on patent publication US20240335462A1, “SULFUR/PHOSPHORUS-CONTAINING ARYL COMPOUND AND APPLICATION THEREOF” (MEDSHINE DISCOVERY INC., priority 2021, published 2024), this text covers IC50 for seven molecules.

For `CNC(=O)c1cnc(NC(=O)C2CC2)cc1Nc1cccc(-c2ncc(S(=O)(=O)C(C)C)cn2)c1OC` [WX-019], the pIC50 is < 5.00 in the test with Ba/F3-TEL-TYK2 cells and 8.82 in test [1].
Taken in the same sequence, the figures for `CNC(=O)c1cnc(NC(=O)C2CC2)cc1Nc1cccc(-c2ccc(S(=O)(=O)C(C)C)cn2)c1OC.Cl` [Hydrochloride of WX-020] were < 5.00 and 8.89.
Taken in the same sequence, the figures for `CNC(=O)c1nnc(NC(=O)C2CC2)cc1Nc1cccc(-c2ccc(P(=O)(C3CC3)C3CC3)cn2)c1OC` [WX-021] were < 5.00 and 8.68.
Taken in the same sequence, the figures for `CNC(=O)c1nnc(NC(=O)C2CC2)cc1Nc1cccc(-c2ccc(S(=N)(=O)C(C)C)cn2)c1OC` (single isomer, unassigned) [WX-012A] were < 5.00 and 8.70.
On to `CNC(=O)c1nnc(NC(=O)C2CC2)cc1Nc1cccc(-c2ncc(S(=N)(=O)C(C)C)cn2)c1OC` (single isomer, unassigned) [WX-011B], for which the pIC50 is < 5.00 in the test with Ba/F3-TEL-TYK2 cells and 8.62 in test [1].
Taken in the same sequence, the figures for `CNC(=O)c1nnc(NC(=O)C2CC2)cc1Nc1cccc(-c2ncc(S(=N)(=O)C(C)C)cn2)c1OC` (single isomer, unassigned) [WX-011A] were < 5.00 and 8.59.
Taken in the same sequence, the figures for `CNC(=O)c1nnc(NC(=O)C2CC2)cc1Nc1cccc(-c2ccc(S(=N)(=O)C(C)C)cn2)c1OC` (single isomer, unassigned) [WX-012B] were < 5.00 and 8.82.
